In one assay the target is T1, human FAAH (Homo sapiens, UniProt O00519).
T1 construct: made in house; host or cells: E. coli
T1 sequence (O00519 1-579): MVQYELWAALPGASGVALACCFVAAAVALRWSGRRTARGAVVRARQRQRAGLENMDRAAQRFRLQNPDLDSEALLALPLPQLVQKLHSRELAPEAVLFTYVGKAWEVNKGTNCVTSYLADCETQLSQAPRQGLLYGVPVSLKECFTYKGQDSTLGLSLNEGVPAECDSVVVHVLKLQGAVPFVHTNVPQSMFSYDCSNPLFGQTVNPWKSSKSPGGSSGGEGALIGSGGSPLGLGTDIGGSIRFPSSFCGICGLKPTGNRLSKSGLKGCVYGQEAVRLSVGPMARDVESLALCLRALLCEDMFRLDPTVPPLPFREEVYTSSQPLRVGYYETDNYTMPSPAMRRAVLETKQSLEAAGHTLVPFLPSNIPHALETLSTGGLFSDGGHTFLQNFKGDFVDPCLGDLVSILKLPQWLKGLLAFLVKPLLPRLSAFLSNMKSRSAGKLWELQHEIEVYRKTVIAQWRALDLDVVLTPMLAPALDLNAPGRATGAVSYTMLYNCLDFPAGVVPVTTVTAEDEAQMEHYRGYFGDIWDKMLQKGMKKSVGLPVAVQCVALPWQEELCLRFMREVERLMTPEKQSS
In words: FAAH assay, human FAAH enzyme inactivation (kinact/Ki). The following applies: pH 7.4, in vitro, oleamide 50 μM, 30° C., read-out: hFAAH kinact/Ki. The format is biochemical. The gist of the method: (§1)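 Oleamide hydrolysis by 1-4 nM purified E. coli-expressed FAAH (substrate 50 μM = Km) coupled to GDH/NADH, pH 7.4 phosphate, 7.5% DMSO and EtOH, 30° C; A340 followed 90 min. kobs from mono-exponential fits; kinact/Ki from kobs-versus-concentration slope, multiplied by two.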

A further assay deals with Male Sprague-Dawley Rats. In words: In vivo Complete Freund's Adjuvant (CFA) efficacy assay, inhibition of allodynia. Also on record: species or system rat; key: (+) indicates the test compound was determined to be efficacious at 3 mpk, oral dosing; (−) indicates the test compound was determined to not be efficacious at 3 mpk, oral dosing. Particulars: 3 mpk, oral dosing; PWT four hours postdose; p < 0.05 vs vehicle group. The gist of the method: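 Adult male Sprague-Dawley rats weighing 200 g-250 g received an intra-plantar injection of 150 uL Complete Freund's Adjuvant into the left hindpaw to induce inflammation. On day 4 after injection, baseline paw withdrawal threshold was measured with Von Frey hairs using the Dixon Up and Down method. Threshold was measured again at four hours postdose. Treatment groups were compared by ANOVA with Dunnett's two-tailed test.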

For a further assay, the target named is T2, rat FAAH (Rattus norvegicus, UniProt P97612).
T2 construct: made in house; host or cells: E. coli
T2 sequence (P97612 1-579): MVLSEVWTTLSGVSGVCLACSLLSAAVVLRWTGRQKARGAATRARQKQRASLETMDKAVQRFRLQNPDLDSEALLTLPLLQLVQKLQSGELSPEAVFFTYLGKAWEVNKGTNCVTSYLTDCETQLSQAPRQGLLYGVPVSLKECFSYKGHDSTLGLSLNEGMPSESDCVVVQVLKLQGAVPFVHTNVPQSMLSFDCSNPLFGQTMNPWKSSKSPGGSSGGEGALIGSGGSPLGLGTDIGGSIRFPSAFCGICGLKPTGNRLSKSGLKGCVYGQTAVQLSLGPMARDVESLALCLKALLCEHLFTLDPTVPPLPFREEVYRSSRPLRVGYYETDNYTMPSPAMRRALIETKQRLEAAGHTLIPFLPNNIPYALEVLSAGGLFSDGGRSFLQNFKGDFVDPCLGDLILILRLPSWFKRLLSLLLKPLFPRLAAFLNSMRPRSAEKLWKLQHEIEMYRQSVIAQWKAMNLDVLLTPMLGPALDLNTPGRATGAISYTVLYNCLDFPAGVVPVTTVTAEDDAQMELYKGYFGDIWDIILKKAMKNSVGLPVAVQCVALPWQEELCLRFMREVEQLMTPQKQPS
Briefly: FAAH assay, rat FAAH enzyme inactivation (kinact/Ki). The format is biochemical. The following applies: pH 7.4, in vitro, oleamide 50 μM, 30° C., read-out: rFAAH kinact/Ki. The gist of the method:
as §1

Regarding `Cc1noc(NC(=O)N2CCC3(CC2)C[C@@H](c2ccc(OCc4ccc(F)c(F)c4)cc2)CO3)c1C` [Example 52, (3S)-3-{4-[(3,4-difluorobenzyl)oxy]phenyl}-N-(3,4-dimethylisoxazol-5-yl)-1-oxa-8-azaspiro[4.5]decane-8-carboxamide], the kinact/KI at human FAAH is 10100 M⁻¹ s⁻¹; on rat FAAH it was 6170 M⁻¹ s⁻¹. Moreover, in the assay on Male Sprague-Dawley Rats, the “CFA Efficacy” value was “(+)”.

As to `Cc1noc(NC(=O)N2CCC3(CC2)C[C@@H](c2cccc(-c4ccc(F)c(F)c4)c2)CO3)c1C` [Example 57, (3S)-3-(3′,4′-difluorobiphenyl-3-yl)-N-(3,4-dimethylisoxazol-5-yl)-1-oxa-8-azaspiro[4.5]decane-8-carboxamide], the values for the kinact/KI at human FAAH and on rat FAAH were 1610 M⁻¹ s⁻¹ and 2110 M⁻¹ s⁻¹, respectively. Also, the “CFA Efficacy” value in the assay on Male Sprague-Dawley Rats is on record as “(+)”.

Turning to `Cc1noc(NC(=O)N2CCC3(CC2)C[C@H](c2cccc(-c4ccc(F)cc4)c2)CO3)c1C` [Example 59, (3R)—N-(3,4-dimethylisoxazol-5-yl)-3-(4′-fluorobiphenyl-3-yl)-1-oxa-8-azaspiro[4.5]decane-8-carboxamide], the kinact/KI turned out to be 3130 M⁻¹ s⁻¹ on human FAAH and 879 M⁻¹ s⁻¹ at rat FAAH. In addition, the “CFA Efficacy” value in the assay on Male Sprague-Dawley Rats is listed as “(+)”.

As to `Cc1noc(NC(=O)N2CCC3(CC2)C[C@@H](c2cccc(-c4ccc(F)cc4)c2)CO3)c1C` [Example 60, (3S)—N-(3,4-dimethylisoxazol-5-yl)-3-(4′-fluorobiphenyl-3-yl)-1-oxa-8-azaspiro[4.5]decane-8-carboxamide], the kinact/KI came out at 2110 M⁻¹ s⁻¹ at human FAAH and 2750 M⁻¹ s⁻¹ at rat FAAH. Moreover, in the assay with Male Sprague-Dawley Rats, the “CFA Efficacy” value was “(+)”.

For the compound `Cc1noc(NC(=O)N2CCC3(CC2)C[C@H](c2cccc(-c4ccc(Cl)cc4)c2)CO3)c1C` [Example 61, (3R)-3-(4′-chlorobiphenyl-3-yl)-N-(3,4-dimethylisoxazol-5-yl)-1-oxa-8-azaspiro[4.5]decane-8-carboxamide], the figures for the kinact/KI on human FAAH and at rat FAAH were 1220 M⁻¹ s⁻¹ and 433 M⁻¹ s⁻¹, respectively. For the same compound, the “CFA Efficacy” value in the assay on Male Sprague-Dawley Rats is reported as “(+)”.

For `Cc1noc(NC(=O)N2CCC3(CC2)C[C@@H](c2cccc(-c4ccc(Cl)cc4)c2)CO3)c1C` [Example 62, (3S)-3-(4′-chlorobiphenyl-3-yl)-N-(3,4-dimethylisoxazol-5-yl)-1-oxa-8-azaspiro[4.5]decane-8-carboxamide], the values for the kinact/KI on human FAAH and on rat FAAH were 2920 M⁻¹ s⁻¹ and 2260 M⁻¹ s⁻¹, respectively. Moreover, the “CFA Efficacy” value in the assay with Male Sprague-Dawley Rats is reported as “(+)”.

For the compound `Cc1noc(NC(=O)N2CCC3(CC2)C[C@@H](c2cccc(-c4ccc(OC(F)(F)F)cc4)c2)CO3)c1C` [Example 63, (3S)—N-(3,4-dimethylisoxazol-5-yl)-3-[4′-(trifluoromethoxy)biphenyl-3-yl]-1-oxa-8-azaspiro[4.5]decane-8-carboxamide], the kinact/KI at human FAAH worked out at 2350 M⁻¹ s⁻¹; on rat FAAH, 2160 M⁻¹ s⁻¹. Further, the “CFA Efficacy” value in the assay with Male Sprague-Dawley Rats is given as “(+)”.

`Cn1nnnc1NC(=O)N1CCC2(CC1)C[C@H](c1cccc(Oc3ccc(Cl)cn3)c1)CO2` [Example 81, 3-{3-[(5-chloropyridin-2-yl)oxy]phenyl}-N-(1-methyl-1H-tetrazol-5-yl)-1-oxa-8-azaspiro[4.5]decane-8-carboxamide]: the kinact/KI at human FAAH was found to be 4890 M⁻¹ s⁻¹; on rat FAAH, 11200 M⁻¹ s⁻¹. The “CFA Efficacy” value in the assay with Male Sprague-Dawley Rats was “(+)”.

Take `Cn1nnnc1NC(=O)N1CCC2(CC1)C[C@@H](c1ccc(OCc3cccc(F)c3)cc1)CO2` [Example 87, (3S)-3-{4-[(3-fluorobenzyl)oxy]phenyl}-N-(1-methyl-1H-tetrazol-5-yl)-1-oxa-8-azaspiro[4.5]decane-8-carboxamide]: the kinact/KI at human FAAH came out at 15900 M⁻¹ s⁻¹; on rat FAAH, 4110 M⁻¹ s⁻¹. Also, the “CFA Efficacy” value with Male Sprague-Dawley Rats is “(+)”.

For the compound `Cn1nnnc1NC(=O)N1CCC2(CC1)C[C@H](c1ccc(OCc3ccc(F)c(F)c3)cc1)CO2` [Example 88, (3R)-3-{4-[(3,4-difluorobenzyl)oxy]phenyl}-N-(1-methyl-1H-tetrazol-5-yl)-1-oxa-8-azaspiro[4.5]decane-8-carboxamide], the kinact/KI at human FAAH worked out at 32600 M⁻¹ s⁻¹; at rat FAAH, 25000 M⁻¹ s⁻¹. The “CFA Efficacy” value with Male Sprague-Dawley Rats is “(+)”.

As for `Cn1nnnc1NC(=O)N1CCC2(CC1)C[C@@H](c1ccc(OCc3ccc(F)c(F)c3)cc1)CO2` [Example 89, (3S)-3-{4-[(3,4-difluorobenzyl)oxy]phenyl}-N-(1-methyl-1H-tetrazol-5-yl)-1-oxa-8-azaspiro[4.5]decane-8-carboxamide], the kinact/KI came out at 29800 M⁻¹ s⁻¹ at human FAAH and 9640 M⁻¹ s⁻¹ at rat FAAH. In addition, the “CFA Efficacy” value with Male Sprague-Dawley Rats was “(+)”.

`Cn1nnnc1NC(=O)N1CCC2(CC1)C[C@H](c1ccc(OCc3ccc(F)cc3)cc1)CO2` [Example 90, (3R)-3-{4-[(4-fluorobenzyl)oxy]phenyl}-N-(1-methyl-1H-tetrazol-5-yl)-1-oxa-8-azaspiro[4.5]decane-8-carboxamide]: the kinact/KI came out at 30800 M⁻¹ s⁻¹ on human FAAH and 22600 M⁻¹ s⁻¹ on rat FAAH. Moreover, the “CFA Efficacy” value in the assay on Male Sprague-Dawley Rats is given as “(+)”.

As to `Cn1nnnc1NC(=O)N1CCC2(CC1)C[C@@H](c1ccc(OCc3ccc(F)cc3)cc1)CO2` [Example 91, (3S)-3-{4-[(4-fluorobenzyl)oxy]phenyl}-N-(1-methyl-1H-tetrazol-5-yl)-1-oxa-8-azaspiro[4.5]decane-8-carboxamide], the figures for the kinact/KI at human FAAH and at rat FAAH were 21200 M⁻¹ s⁻¹ and 7500 M⁻¹ s⁻¹, respectively. For the same compound, the “CFA Efficacy” value with Male Sprague-Dawley Rats was “(+)”.

`Cn1nnnc1NC(=O)N1CCC2(CC1)C[C@H](c1ccc(OCc3ccc(C(F)(F)F)cn3)cc1)CO2` [Example 95, (3R)—N-(1-methyl-1H-tetrazol-5-yl)-3-(4-{[5-(trifluoromethyl)pyridin-2-yl]methoxy}phenyl)-1-oxa-8-azaspiro[4.5]decane-8-carboxamide]: the results for the kinact/KI on human FAAH and on rat FAAH were 21500 M⁻¹ s⁻¹ and 30300 M⁻¹ s⁻¹, respectively. Besides, in the assay on Male Sprague-Dawley Rats, the “CFA Efficacy” value is on record as “(+)”.

Turning to `Cn1nnnc1NC(=O)N1CCC2(CC1)C[C@H](c1cccc(-c3ccc(F)cc3)c1)CO2` [Example 96, (3R)-3-(4′-fluorobiphenyl-3-yl)-N-(1-methyl-1H-tetrazol-5-yl)-1-oxa-8-azaspiro[4.5]decane-8-carboxamide], the kinact/KI on human FAAH was 26300 M⁻¹ s⁻¹; on rat FAAH it was 2010 M⁻¹ s⁻¹. For the same compound, in the assay with Male Sprague-Dawley Rats, the “CFA Efficacy” value is given as “(+)”.

Turning to `Cn1nnnc1NC(=O)N1CCC2(CC1)C[C@H](c1cccc(-c3ccc(OC(F)(F)F)cc3)c1)CO2` [Example 97, (3R)—N-(1-methyl-1H-tetrazol-5-yl)-3-[4′-(trifluoromethoxy)biphenyl-3-yl]-1-oxa-8-azaspiro[4.5]decane-8-carboxamide], the kinact/KI at human FAAH is 16900 M⁻¹ s⁻¹; at rat FAAH it was 1830 M⁻¹ s⁻¹. Moreover, in the assay on Male Sprague-Dawley Rats, the “CFA Efficacy” value is on record as “(+)”.

As for `Cn1nnnc1NC(=O)N1CCC2(CC1)C[C@H](c1cccc(-c3ccc(C(F)(F)F)cn3)c1)CO2` [Example 99, (3R)—N-(1-methyl-1H-tetrazol-5-yl)-3-{3-[5-(trifluoromethyl)pyridin-2-yl]phenyl}-1-oxa-8-azaspiro[4.5]decane-8-carboxamide], the kinact/KI was 9970 M⁻¹ s⁻¹ on human FAAH and 2690 M⁻¹ s⁻¹ at rat FAAH. In addition, the “CFA Efficacy” value in the assay with Male Sprague-Dawley Rats is reported as “(+)”.

The values above are taken from patent US20110230493A1, “1-OXA-8-Azaspiro [4,5] Decabe-8-Carboxamide Compounds as FAAH Inhibitors” (Pfizer Inc., priority 2008, published 2011).
